Results on one molecule are retold here after patent US10899785B2, “Aminoglycoside derivatives and uses thereof in treating genetic disorders” (Eloxx Pharmaceuticals Ltd., priority 2015, dated 2021).

Assay [1] has as its system cystic fibrosis G542X nonsense mutation. Put plainly: Cell-free nonsense mutation suppression dose-response assay, firefly/renilla. The format is biochemical, rabbit. The settings on record: 0-50 μM, FIGS. 4-7. The protocol: (§1) The plasmids were transcribed in vitro and translated using rabbit reticulocytes (TNT mix) and then tested for the expression levels of the firefly and renilla luciferases.
(§2) WT plasmids expressed both firefly and renilla luciferases while mutant plasmids expressed only the renilla luciferase due to the stop codon found in the inserted sequence. The readthrough assays were conducted for the tested compounds and the controls by adding the compounds to the in vitro transcription/translation reaction mixture. In case the compounds exerted suppression of the premature nonsense/stop codon mutation, the firefly luciferase was expressed and a fold-change in its expression was observed.
Readthrough activity of Cystic Fibrosis (CF) mutation G542X was tested using the compounds presented in Table 1, and the mutation suppression was calculated based on firefly/renilla expression ratio values, and normalized with respect to the expression level of the WT and the control sample (no tested compound).

Assay [2] deals with Rett syndrome R168X, R270X and R294X nonsense mutations. Kind of assay: Cell-free nonsense mutation suppression assay, firefly/renilla. The format is biochemical, rabbit. The conditions noted are these: 5 μM, FIGS. 8A-C. The protocol:
as §1, §2
FIGS. 8A-C present the results of Rett syndrome R168X (FIG. 8A), R270X (FIG. 8B) and R294X (FIG. 8C) nonsense mutations suppression cell-free assays conducted for six exemplary compounds according to embodiments of the present invention, NB144, NB145, NB146, NB150, NB151 and NB152, at a concentration of 5 μM. As shown therein, when compared with the control (non-treated cell extracts), the wild type cell extracts are unaffected (approx. 100%); however, in all three Rett syndrome mutation models there is a significant impact of the different treatments on the readthrough activity (>>>100%).

For `C[C@@H](O)C1O[C@H](O[C@@H]2C(N)C[C@@H](NC(=O)C(O)CCN)C(O)C2O[C@@H]2O[C@H](CNC(=N)N)C(O)C2O)C(N)C(O)[C@@H]1O` (stereo in doubt) [NB152], the “G542X mutation suppression (readthrough) activity, dose-response” value in assay [1] is reported as “notable dose-dependent readthrough activity”. The “readthrough activity compared within the series” value in assay [2] was “higher activity compared to NB150 and NB151”.
